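Results reflect a 48-hour exposure of cells in 96-well plates to compound at five concentrations. At the TGI there is no net growth.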
test system: HL-60(TB) leukemia; assay: growth of human tumour cells (NCI), 48 h

Row | SMILES | TGI [µM]
1 | COc1ccc2nc3c([N+](=O)[O-])ccc4c3c(c2c1)N=CN4CCCN(C)C | 6.27

test system: HT29 colon; assay: growth of human tumour cells (NCI), 48 h

Row | SMILES | TGI [µM]
2 | Cc1oc2c(c1C)S(=O)(=O)C(C#N)C(c1ccccc1)N2 (configuration not stated) | > 100
3 | CC(=O)Oc1cc2c(n(C)c1=O)-c1ccccc1C2 | > 100
4 | COc1ccc2cc(Oc3ccc(Cl)cc3)c(=O)oc2c1 | > 100
5 | CN(C)C=C1C(=O)c2c(Br)sc(Br)c2C1=O | 86.5
6 | CCN(CC)C(=C(C(Cl)=C(Cl)Cl)[N+](=O)[O-])N(CC)CC | > 100
7 | CCOC(=O)C(C(=O)OCC)=C1NC2(c3ccccc3Nc3ccc(C)cc32)C(C#N)S1 (configuration not stated) | 15.1
8 | COC(=O)Nc1nc2ccc(S(=O)(=O)NC(CC(C)C)C(=O)OC)cc2[nH]1 (configuration not stated) | 8.06
9 | OC(CCN1CCCCC1)(c1ccccc1)c1ccccc1 | > 100
10 | CC(C)(C)[Si](C)(C)O[C@@H](C(=O)OC1C=CCCC1)[C@@H](NC(=O)c1ccccc1)c1ccccc1 (some centres not stated) | 49.5
11 | O=C(Nc1cccc2ccccc12)Nn1cnnc1 | > 100
12 | Cc1oc2c(c1C)S(=O)(=O)C(C#N)=C(c1ccccc1)N2 | > 100
13 | Cc1ccc2c(c1)C(=O)/C(=N/Nc1ccc(Cl)cc1)CCO2 | > 100
14 | CN(C)c1ccc(/C=N\NC(=O)c2ccccc2Nc2ccccc2C(=O)N/N=C/c2ccc(N(C)C)cc2)cc1 | > 100
15 | CC(=O)O[C@@H]1CC[C@@]2(C)C(CC[C@H]3[C@@H]4CC[C@H]([C@H](C)CCc5nc6ccc(C)cc6[nH]5)[C@@]4(C)CC[C@@H]32)C1 (some centres not stated) | 70.7
16 | C=C1C(=O)OC2/C=C(\CO)C3OC3C3OC3(C)CC(OC(=O)/C(=C/C)CO)C12 (configuration not stated) | > 100
17 | Cc1csc2nc3c(cnn3C)c(=S)n12 | > 100
18 | C/C1=C/C(C)CC(C)OC(=O)C(C)NC(=O)C(Cc2ccc(O)c(I)c2)N(C)C(=O)CNC(=O)C(C)C1 (configuration not stated) | > 100
19 | Cc1ccc(-n2cnc3c(N)nc(N)nc32)cc1 | > 100
20 | CNc1c2cccc(C)c2nc2c(C(=O)NCCN(C)C)cccc12 | 0.138
21 | CCC(Sc1cc(Cl)c(C)cc1S(=O)(=O)Nc1nc(N)nc(N(C)C)n1)C(=O)O (configuration not stated) | > 10
22 | O=c1c(C=Nc2ccccc2Cl)c(O)n(-c2ccccc2)c(=O)n1-c1ccccc1 | > 100
23 | CCOC(=O)NNC(=O)C1CSC(c2ccccc2)N1C(C)=O (configuration not stated) | > 100
24 | CC(C)(C)O/C=C1/C(=O)OC2C[C@@H](O[Si](C)(C)C(C)(C)C)CC12 (some centres not stated) | > 100
25 | COc1ccc2nc3c([N+](=O)[O-])ccc4c3c(c2c1)N=CN4CCCN(C)C | 12.5
26 | O=C1CC(=O)NC(=NN2C(=O)/C(=C/C(=O)c3ccco3)N=C2c2ccccc2)N1 | > 100

test system: IGROV1 ovarian; assay: growth of human tumour cells (NCI), 48 h

Row | SMILES | TGI [µM]
27 | Cc1oc2c(c1C)S(=O)(=O)C(C#N)C(c1ccccc1)N2 (configuration not stated) | > 100
28 | CC(=O)Oc1cc2c(n(C)c1=O)-c1ccccc1C2 | > 100
29 | COc1ccc2cc(Oc3ccc(Cl)cc3)c(=O)oc2c1 | > 100
30 | CN(C)C=C1C(=O)c2c(Br)sc(Br)c2C1=O | 46.8
31 | CCN(CC)C(=C(C(Cl)=C(Cl)Cl)[N+](=O)[O-])N(CC)CC | > 100
32 | CCOC(=O)C(C(=O)OCC)=C1NC2(c3ccccc3Nc3ccc(C)cc32)C(C#N)S1 (configuration not stated) | 27.2
33 | COC(=O)Nc1nc2ccc(S(=O)(=O)NC(CC(C)C)C(=O)OC)cc2[nH]1 (configuration not stated) | 6.45
34 | OC(CCN1CCCCC1)(c1ccccc1)c1ccccc1 | > 100
35 | CC(C)(C)[Si](C)(C)O[C@@H](C(=O)OC1C=CCCC1)[C@@H](NC(=O)c1ccccc1)c1ccccc1 (some centres not stated) | > 100
36 | O=C(Nc1cccc2ccccc12)Nn1cnnc1 | > 100
37 | Cc1oc2c(c1C)S(=O)(=O)C(C#N)=C(c1ccccc1)N2 | > 100
38 | Cc1ccc2c(c1)C(=O)/C(=N/Nc1ccc(Cl)cc1)CCO2 | > 100
39 | CN(C)c1ccc(/C=N\NC(=O)c2ccccc2Nc2ccccc2C(=O)N/N=C/c2ccc(N(C)C)cc2)cc1 | > 100
40 | CC(=O)O[C@@H]1CC[C@@]2(C)C(CC[C@H]3[C@@H]4CC[C@H]([C@H](C)CCc5nc6ccc(C)cc6[nH]5)[C@@]4(C)CC[C@@H]32)C1 (some centres not stated) | 19.1
41 | C=C1C(=O)OC2/C=C(\CO)C3OC3C3OC3(C)CC(OC(=O)/C(=C/C)CO)C12 (configuration not stated) | > 100
42 | Cc1csc2nc3c(cnn3C)c(=S)n12 | > 100
43 | C/C1=C/C(C)CC(C)OC(=O)C(C)NC(=O)C(Cc2ccc(O)c(I)c2)N(C)C(=O)CNC(=O)C(C)C1 (configuration not stated) | 0.0236
44 | Cc1ccc(-n2cnc3c(N)nc(N)nc32)cc1 | > 100
45 | CNc1c2cccc(C)c2nc2c(C(=O)NCCN(C)C)cccc12 | 10.6
46 | CCC(Sc1cc(Cl)c(C)cc1S(=O)(=O)Nc1nc(N)nc(N(C)C)n1)C(=O)O (configuration not stated) | > 10
47 | O=c1c(C=Nc2ccccc2Cl)c(O)n(-c2ccccc2)c(=O)n1-c1ccccc1 | > 100
48 | CCOC(=O)NNC(=O)C1CSC(c2ccccc2)N1C(C)=O (configuration not stated) | > 100
49 | CC(C)(C)O/C=C1/C(=O)OC2C[C@@H](O[Si](C)(C)C(C)(C)C)CC12 (some centres not stated) | > 100
50 | COc1ccc2nc3c([N+](=O)[O-])ccc4c3c(c2c1)N=CN4CCCN(C)C | 6.16
51 | O=C1CC(=O)NC(=NN2C(=O)/C(=C/C(=O)c3ccco3)N=C2c2ccccc2)N1 | > 100

test system: KM12 colon; assay: growth of human tumour cells (NCI), 48 h

Row | SMILES | TGI [µM]
52 | Cc1oc2c(c1C)S(=O)(=O)C(C#N)C(c1ccccc1)N2 (configuration not stated) | > 100
53 | CC(=O)Oc1cc2c(n(C)c1=O)-c1ccccc1C2 | > 100
54 | COc1ccc2cc(Oc3ccc(Cl)cc3)c(=O)oc2c1 | > 100
55 | CN(C)C=C1C(=O)c2c(Br)sc(Br)c2C1=O | > 100
56 | CCN(CC)C(=C(C(Cl)=C(Cl)Cl)[N+](=O)[O-])N(CC)CC | > 100
57 | CCOC(=O)C(C(=O)OCC)=C1NC2(c3ccccc3Nc3ccc(C)cc32)C(C#N)S1 (configuration not stated) | 41.3

Source: PubChem BioAssay (NCI)
